US7625875B2 (priority 2002, dated 2009)

How the values were obtained:
WNV = test: microbe, parasite or virus in culture; assay type: cell-based, West Nile virus; settings: West Nile virus, read-out: WNV
in vitro = settings: human
DENV 2 = test: microbe, parasite or virus in culture; assay type: cell-based, dengue virus; settings: Dengue virus, read-out: DENV 2
[1] = Stability in human plasma
HCV = test: Clinical antiviral activity, serum HCV RNA (Amplicor HCV Monitor), val-mCyd daily for 15 days

## CC(C)C(N)C(=O)OC1[C@@H](CO)O[C@@H](n2ccc(N)nc2=O)[C@@]1(C)O (some centres unmarked) [val-mCyd, 2-Amino-3-methyl-butyric acid 5-(4-amino-2-oxo-2H-pyrimidine-1-yl)-4-hydroxy-2 hydroxy-methyl-4-methyl-tetrahydro-furan-3-yl ester]
WNV
  EC50: 82 µM
In vitro
  CC50: 24 µM
DENV 2
  EC50: > 100 µM
[1]; 37° C., after 10 hours
  input val-mCyd remaining: 2%
[1]; human, plasma
  half-life: 1.81 h
HCV; 50 mg, Day 1 (baseline)
  HCV RNA in Log10 scale, mean: 6.72 log10
  HCV RNA in Log10 scale, median: 6.69 log10
HCV; 50 mg, Day 2
  Change from baseline (Day 1) in Log10 HCV RNA, mean: −0.13 log10
  Change from baseline (Day 1) in Log10 HCV RNA, median: −0.07 log10
  HCV RNA in Log10 scale, mean: 6.60 log10
  HCV RNA in Log10 scale, median: 6.58 log10
HCV; 50 mg, Day 4
  Change from baseline (Day 1) in Log10 HCV RNA, mean: −0.16 log10
  Change from baseline (Day 1) in Log10 HCV RNA, median: −0.13 log10
  HCV RNA in Log10 scale, mean: 6.56 log10
  HCV RNA in Log10 scale, median: 6.55 log10
HCV; 50 mg, Day 8
  Change from baseline (Day 1) in Log10 HCV RNA, mean: −0.11 log10
  Change from baseline (Day 1) in Log10 HCV RNA, median: −0.06 log10
  HCV RNA in Log10 scale, mean: 6.62 log10
  HCV RNA in Log10 scale, median: 6.56 log10
HCV; 50 mg, Day 11
  Change from baseline (Day 1) in Log10 HCV RNA, mean: −0.26 log10
  Change from baseline (Day 1) in Log10 HCV RNA, median: −0.26 log10
  HCV RNA in Log10 scale, mean: 6.47 log10
  HCV RNA in Log10 scale, median: 6.46 log10
HCV; 50 mg, Day 15
  Change from baseline (Day 1) in Log10 HCV RNA, mean: −0.15 log10
  Change from baseline (Day 1) in Log10 HCV RNA, median: −0.10 log10
  HCV RNA in Log10 scale, mean: 6.57 log10
  HCV RNA in Log10 scale, median: 6.57 log10
HCV; 50 mg, Day 16
  Change from baseline (Day 1) in Log10 HCV RNA, mean: −0.15 log10
  Change from baseline (Day 1) in Log10 HCV RNA, median: −0.13 log10
  HCV RNA in Log10 scale, mean: 6.57 log10
  HCV RNA in Log10 scale, median: 6.45 log10
HCV; 50 mg, Day 17
  Change from baseline (Day 1) in Log10 HCV RNA, mean: −0.18 log10
  Change from baseline (Day 1) in Log10 HCV RNA, median: −0.21 log10
  HCV RNA in Log10 scale, mean: 6.54 log10
  HCV RNA in Log10 scale, median: 6.54 log10
HCV; 50 mg, Day 22
  Change from baseline (Day 1) in Log10 HCV RNA, mean: −0.09 log10
  Change from baseline (Day 1) in Log10 HCV RNA, median: −0.09 log10
  HCV RNA in Log10 scale, mean: 6.64 log10
  HCV RNA in Log10 scale, median: 6.73 log10
HCV; 50 mg, Day 29
  Change from baseline (Day 1) in Log10 HCV RNA, mean: −0.01 log10
  Change from baseline (Day 1) in Log10 HCV RNA, median: −0.04 log10
  HCV RNA in Log10 scale, mean: 6.71 log10
  HCV RNA in Log10 scale, median: 6.67 log10
HCV; 50 mg, Day −1 (pre-treatment)
  HCV RNA in Log10 scale, mean: 6.72 log10
  HCV RNA in Log10 scale, median: 6.81 log10
HCV; 100 mg, Day 1 (baseline)
  HCV RNA in Log10 scale, mean: 6.68 log10
  HCV RNA in Log10 scale, median: 6.93 log10
HCV; 100 mg, Day 2
  Change from baseline (Day 1) in Log10 HCV RNA, mean: −0.16 log10
  Change from baseline (Day 1) in Log10 HCV RNA, median: −0.12 log10
  HCV RNA in Log10 scale, mean: 6.52 log10
  HCV RNA in Log10 scale, median: 6.80 log10
HCV; 100 mg, Day 4
  Change from baseline (Day 1) in Log10 HCV RNA, mean: −0.25 log10
  Change from baseline (Day 1) in Log10 HCV RNA, median: −0.24 log10
  HCV RNA in Log10 scale, mean: 6.43 log10
  HCV RNA in Log10 scale, median: 6.46 log10
HCV; 100 mg, Day 8
  Change from baseline (Day 1) in Log10 HCV RNA, mean: −0.21 log10
